The record followed here is US8163756B2 (priority 2004, dated 2012).

pIC50: −log10 of the molar value. Where a name gives a salt, the structure may show the parent alone. Read-outs that look alike come from different tables or passages of the source.

Holding throughout (assay type): biochemical
One test has as its target T1, Abl kinase (Homo sapiens, UniProt P00519).
T1 sequence (P00519 229-512): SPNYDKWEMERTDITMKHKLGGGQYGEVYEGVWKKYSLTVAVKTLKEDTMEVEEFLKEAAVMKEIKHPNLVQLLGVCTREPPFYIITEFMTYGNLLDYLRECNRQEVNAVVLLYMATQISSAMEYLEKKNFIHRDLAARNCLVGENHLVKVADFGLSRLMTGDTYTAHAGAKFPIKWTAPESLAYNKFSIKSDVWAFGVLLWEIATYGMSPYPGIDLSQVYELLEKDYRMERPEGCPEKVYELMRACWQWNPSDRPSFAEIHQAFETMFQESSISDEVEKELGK
The test is described as follows: Abl kinase assay A1 (pyruvate kinase/lactate dehydrogenase coupled, spectrophotometric). How it is done: (§1) IC50 values were calculated from a series of percent inhibition values determined at a range of inhibitor concentrations using software routines as implemented in the GraphPad Prism software package.

The target of a further test is KDR kinase (Homo sapiens, UniProt P35968, DEL940-989/E990V). The test is described as follows: KDR kinase assay K1 (pyruvate kinase/lactate dehydrogenase coupled, spectrophotometric). The protocol: as §1
The target in the next test is B-Raf(V599E) kinase (Homo sapiens, UniProt P15056, V600E). Nature of the test: B-Raf(V599E) kinase assay B1 (construct 1, MEK1 substrate, coupled spectrophotometric). The protocol:
The test compounds were incubated with the reaction mixtureat 30° C. for 2 h. […] The reaction rate was calculated using the […] time frame. […] IC50 values were calculated from a series of percent inhibition values determined at a range of inhibitor concentrations using software routines as implemented in the GraphPad Prism software package.

Test [1] addresses phosphorylated p-38-alpha kinase (Homo sapiens, UniProt Q16539). The test is described as follows: P-38 alpha kinase assay P1 (coupled spectrophotometric, 2 h pre-incubation).
The mark [2] stands for this setting: Method A1, read-out: Abl Data (IC50).
[3] abbreviates: Method K1, read-out: KDR Data (IC50).
The mark [4] stands for this setting: method P1 (2 h pre-incubation), read-out: P-38 Data.

Sequence of B-Raf(V599E) kinase (P15056 with tags, fused parts or gaps V600E): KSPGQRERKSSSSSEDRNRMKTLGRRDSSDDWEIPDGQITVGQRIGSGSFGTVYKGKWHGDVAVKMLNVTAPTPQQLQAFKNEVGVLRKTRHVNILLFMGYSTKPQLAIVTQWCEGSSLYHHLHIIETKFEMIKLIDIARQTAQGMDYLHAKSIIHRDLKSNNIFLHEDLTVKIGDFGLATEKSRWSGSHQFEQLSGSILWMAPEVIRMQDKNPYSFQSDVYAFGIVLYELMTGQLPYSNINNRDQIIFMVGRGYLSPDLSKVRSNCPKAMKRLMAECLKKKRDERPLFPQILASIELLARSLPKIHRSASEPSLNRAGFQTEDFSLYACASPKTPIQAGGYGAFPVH
Sequence of KDR kinase (P35968 with tags, fused parts or gaps DEL940-989/E990V): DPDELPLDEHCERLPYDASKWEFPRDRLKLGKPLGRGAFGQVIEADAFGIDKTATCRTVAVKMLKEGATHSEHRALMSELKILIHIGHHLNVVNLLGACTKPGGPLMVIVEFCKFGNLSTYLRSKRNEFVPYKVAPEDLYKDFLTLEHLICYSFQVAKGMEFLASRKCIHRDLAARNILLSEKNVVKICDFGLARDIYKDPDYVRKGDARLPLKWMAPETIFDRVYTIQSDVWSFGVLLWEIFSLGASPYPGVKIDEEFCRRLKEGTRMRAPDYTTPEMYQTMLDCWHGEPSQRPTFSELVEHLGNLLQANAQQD
Sequence of phosphorylated p-38-alpha kinase (Q16539 1-360 isoform Q16539-2): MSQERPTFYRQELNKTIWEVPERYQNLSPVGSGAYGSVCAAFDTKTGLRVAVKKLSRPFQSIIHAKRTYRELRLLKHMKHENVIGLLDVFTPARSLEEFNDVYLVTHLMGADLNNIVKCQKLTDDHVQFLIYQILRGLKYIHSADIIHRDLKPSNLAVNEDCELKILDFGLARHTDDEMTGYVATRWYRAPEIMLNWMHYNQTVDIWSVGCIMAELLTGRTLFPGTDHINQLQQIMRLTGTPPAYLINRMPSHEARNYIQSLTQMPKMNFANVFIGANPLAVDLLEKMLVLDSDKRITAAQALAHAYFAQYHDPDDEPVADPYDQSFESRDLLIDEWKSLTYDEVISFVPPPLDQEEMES

Consider `CC(C)(C)c1cc(NC(=O)Nc2cccc(Cl)c2Cl)n(-c2ccc3c(c2)CCCN3C(=N)N)n1` [Example 136, 1-[3-t-butyl-1-(1-amidino-1,2,3,4-tetrahydroquinolin-6-yl]-1H-pyrazol-5-yl)-3-(2,3-dichlorophenyl)urea], for which the pIC50 is 7.00 at Abl kinase (setting [2]), 7.54 at KDR kinase (setting [3]), 8.31 on B-Raf(V599E) kinase and 6.89 in test [1] (setting [4]).

Regarding `CC(C)(C)c1cc(NC(=O)Nc2cccc(Cl)c2Cl)n(-c2ccc(C(C)(C)O)cc2)n1` [Example 20, 1-{3-t-butyl-1-[4-(2-hydroxypropan-2-yl)phenyl]-1H-pyrazol-5-yl}-3-(2,3-dichlorophenyl)urea], the pIC50 on Abl kinase (setting [2]) is 5.80; on KDR kinase (setting [3]), 6.89; at B-Raf(V599E) kinase it was 8.07; in test [1] (setting [4]), 7.22.

Consider `CC(C)(C)c1cc(NC(=O)Nc2cccc(Cl)c2Cl)n(-c2ccc3c(c2)C(N)=NCC3)n1` [Example 129, 1-[1-(1-amino-3,4-dihydroisoquinolin-7-yl)-3-t-butyl-1H-pyrazol-5-yl]-3-(2,3-dichlorophenyl)urea], for which the pIC50 at Abl kinase (setting [2]) was 6.57; at KDR kinase (setting [3]), 6.30; against B-Raf(V599E) kinase, 8.38; in test [1] (setting [4]) it was 6.89.

As for `CC(C)(C)c1cc(NC(=O)Nc2cccc(Cl)c2Cl)n(-c2ccc3c(c2)CCN(S(C)(=O)=O)C3)n1` [Example 154, 1-(3-t-butyl-1-(2-(methylsulfonyl)-1,2,3,4-tetrahydroisoquinolin-6-yl)-1H-pyrazol-5-yl)-3-(2,3-dichlorophenyl)urea], the pIC50 at Abl kinase (setting [2]) is 6.57; at KDR kinase (setting [3]), 7.04; against B-Raf(V599E) kinase it was 8.54; in test [1] (setting [4]), 7.92.

Turning to `CC(C)(C)c1cc(NC(=O)Nc2cccc(Cl)c2Cl)n(-c2ccc(CCO)cc2)n1` [Example 45, 1-{3-t-butyl-1-[4-(2-hydroxyethyl)-phenyl]-1H-pyrazol-5-yl}-3-(2,3-dichlorophenyl)urea], the pIC50 on Abl kinase (setting [2]) is 6.11; at KDR kinase (setting [3]), 6.44; at B-Raf(V599E) kinase, 8.21; in test [1] (setting [4]), 8.30.

For the compound `CC(C)(C)c1cc(NC(=O)Nc2cccc(Cl)c2Cl)n(-c2ccc3c(c2)CCCN3)n1` [Example 135, 1-[3-t-butyl-1-(1,2,3,4-tetrahydroquinolin-6-yl)-1H-pyrazol-5-yl]-3-(2,3-dichlorophenyl)urea hydrochloride], the pIC50 against Abl kinase is 6.08; on KDR kinase, 6.57; against B-Raf(V599E) kinase, 8.35; in test [1], 7.36.

Turning to `CC(C)(C)c1cc(NC(=O)Nc2cccc(Cl)c2Cl)n(-c2ccc3c(c2)CN[C@H](C(N)=O)C3)n1` [Example 178, 1-(3-t-butyl-1-((3S)-3-carbamoyl-1,2,3,4-tetrahydroisoquinolin-7-yl)-1 H-pyrazol-5-yl)-3-(2,3-dichlorophenyl)urea], the pIC50 was 6.64 on Abl kinase (setting [2]), 6.74 at KDR kinase (setting [3]), 8.70 on B-Raf(V599E) kinase and 7.34 in test [1] (setting [4]).

Regarding `CC(C)(C)c1cc(NC(=O)Nc2cccc(Cl)c2Cl)n(-c2ccc3c(c2)NCC3)n1` [Example 112, 1-(3-t-butyl-1-(indolin-6-yl)-1H-pyrazol-5-yl)-3-(2,3-dichlorophenyl)urea], the pIC50 at Abl kinase (setting [2]) is 6.32; on KDR kinase (setting [3]), 6.68; against B-Raf(V599E) kinase, 8.54; in test [1] (setting [4]) it was 7.92.

With `CC(C)(C)c1cc(NC(=O)Nc2cccc(Cl)c2Cl)n(-c2ccc3c(c2)CCNC3=O)n1` [Example 137, 1-(3-t-butyl-1-(1-oxo-1,2,3,4-tetrahydroisoquinolin-6-yl)-1H-pyrazol-5-yl)-3-(2,3-dichloro-phenyl)urea], the pIC50 was 6.82 at Abl kinase (setting [2]), 6.00 on KDR kinase (setting [3]), 8.60 on B-Raf(V599E) kinase and 7.26 in test [1] (setting [4]).

`CC(C)(C)c1cc(NC(=O)Nc2cccc(Cl)c2Cl)n(-c2cc(CN)c3ccccc3c2)n1` [Example 69, 1-[1-(4-(aminomethyl)naphthalen-2-yl)-3-t-butyl-1H-pyrazol-5-yl]-3-(2,3-dichlorophenyl)urea]: the pIC50 was 6.85 at Abl kinase (setting [2]), 6.40 at KDR kinase (setting [3]), 8.38 on B-Raf(V599E) kinase and 6.96 in test [1] (setting [4]).

In the case of `CC(C)(C)c1cc(NC(=O)Nc2cccc(Cl)c2Cl)n(-c2ccc3c(c2)CN(S(C)(=O)=O)CC3)n1` [Example 127, 1-{3-t-butyl-1-[2-(methanesulfonyl)-1,2,3,4-tetrahydroisoquinolin-7-yl]-1H-pyrazol-5-yl}-3-(2,3-dichlorophenyl)urea], the pIC50 is 6.66 on Abl kinase (setting [2]), 6.66 on KDR kinase (setting [3]), 8.47 against B-Raf(V599E) kinase and 7.89 in test [1] (setting [4]).

For `CC(=O)N1CCc2ccc(-n3nc(C(C)(C)C)cc3NC(=O)Nc3cccc(Cl)c3Cl)cc2C1` [Example 126, 1-[1-(2-acetyl-1,2,3,4-tetrahydroisoquinolin-7-yl)-3-t-butyl-1H-pyrazol-5-yl]-3-(2,3-dichlorophenyl)urea], the pIC50 on Abl kinase (setting [2]) was 6.36; on KDR kinase (setting [3]), 6.68; against B-Raf(V599E) kinase, 8.19; in test [1] (setting [4]), 8.00.

Take `CC(C)(C)c1cc(NC(=O)Nc2cccc(Cl)c2Cl)n(-c2cccc(CCO)c2)n1` [Example 24, 1-{3-t-butyl-1-[3-(2-hydroxyethyl)phenyl]-1H-pyrazol-5-yl}-3-(2,3-dichlorophenyl)urea]: the pIC50 on Abl kinase (setting [2]) was 6.08; on KDR kinase (setting [3]), 6.42; against B-Raf(V599E) kinase, 8.64; in test [1] (setting [4]), 7.96.

With `CC(C)(C)c1cc(NC(=O)Nc2cccc(Cl)c2Cl)n(-c2cc(CO)c3ccccc3c2)n1` [Example 60, 1-[5-t-butyl-2-(4-hydroxymethylnaphthalen-2-yl)-2H-pyrazol-3-yl]-3-(2,3-dichloro-phenyl)urea], the pIC50 at Abl kinase (setting [2]) is 7.20; at KDR kinase (setting [3]), 7.21; against B-Raf(V599E) kinase, 8.59; in test [1] (setting [4]), 7.74.

For `CC(C)(C)c1cc(NC(=O)Nc2cccc(Cl)c2Cl)n(-c2cccc(C(N)=O)c2)n1` [Example 13, 1-[3-t-butyl-1-(3-carbamoylphenyl)-1H-pyrazol-5-yl]-3-(2,3-dichlorophenyl)urea], the pIC50 was 5.70 at Abl kinase (setting [2]), 6.44 on KDR kinase (setting [3]), 8.28 on B-Raf(V599E) kinase and 7.35 in test [1] (setting [4]).

Regarding `CC(C)(C)c1cc(NC(=O)Nc2cccc(Cl)c2Cl)n(-c2cccc(CO)c2)n1` [Example 1, 1-[3-t-butyl-1-(3-hydroxymethyl-phenyl)-1H-pyrazol-5-yl]-3-(2,3-dichlorophenyl)urea], the pIC50 at Abl kinase (setting [2]) was 6.51; on KDR kinase (setting [3]), 6.89; against B-Raf(V599E) kinase, 8.34; in test [1] (setting [4]), 7.96.

For the compound `CN(C)CCc1cccc(-n2nc(C(C)(C)C)cc2NC(=O)Nc2cccc(Cl)c2Cl)c1` [Example 40, 1-(3-t-butyl-1-{3-[2-(dimethylamino)ethyl]phenyl}-1H-pyrazol-5-yl)-3-(2,3-di-chlorophenyl)urea], the pIC50 on Abl kinase (setting [2]) was 6.24; on KDR kinase (setting [3]), 6.33; against B-Raf(V599E) kinase it was 8.06.

Consider `CC(C)(C)c1cc(NC(=O)Nc2cc(F)cc(F)c2F)n(-c2ccc3c(c2)CCN3S(C)(=O)=O)n1` [Example 109, 1-(3-t-butyl-1-(1-(methylsulfonyl)indolin-5-yl)-1H-pyrazol-5-yl)-3-(2,3,5-trifluorophenyl)urea], for which the pIC50 is 6.85 at Abl kinase (setting [2]), 7.42 at KDR kinase (setting [3]) and 8.57 against B-Raf(V599E) kinase.

Turning to `CC(C)(C)c1cc(NC(=O)Nc2ccc(Oc3ccccc3)cc2)n(-c2ccc3c(c2)CCNC3)n1` [Example 143, 1-(3-t-butyl-1-(1,2,3,4-tetrahydroiso-quinolin-6-yl)-1H-pyrazol-5-yl)-3-(4-phenoxyphenyl)-urea], the pIC50 is 6.60 at Abl kinase (setting [2]), 6.03 on KDR kinase (setting [3]) and 7.85 at B-Raf(V599E) kinase.

Consider `CNC(=O)[C@@H]1Cc2ccc(-n3nc(C(C)(C)C)cc3NC(=O)Nc3cccc(Cl)c3Cl)cc2CN1` [Example 187, 1-(3-t-butyl-1-((3S)-3-(methylcarbamoyl)-1,2,3,4-tetrahydroisoquinolin-7-yl)-1H-pyrazol-5-yl)-3 (2,3-dichlorophenyl)urea], for which the pIC50 is 6.25 on Abl kinase (setting [2]), 6.82 at KDR kinase (setting [3]) and 8.52 at B-Raf(V599E) kinase.

For the compound `COc1cccc(-n2nc(C(C)(C)C)cc2NC(=O)Nc2cccc(Cl)c2Cl)c1` [Example 15, 1-(3-t-butyl-1-(3-methoxyphenyl)-1H-pyrazol-5-yl)-3-(2,3-dichlorophenyl)urea], the pIC50 on Abl kinase (setting [2]) is 6.41; at KDR kinase (setting [3]) it was 7.09; at B-Raf(V599E) kinase it was 8.48.

In the case of `CC(C)(C)c1cc(NC(=O)Nc2cccc(Cl)c2Cl)n(-c2cccc(C(C)(C)O)c2)n1` [Example 2, 1-{3-t-butyl-1-[3-(2-hydroxypropan-2-yl)phenyl]-1H-pyrazol-5-yl}-3-(2,3-dichlorophenyl)urea], the figures for the pIC50 at Abl kinase (setting [2]), at KDR kinase (setting [3]) and against B-Raf(V599E) kinase were 5.70, 6.34 and 7.72, respectively.
